“And” between values parts separate entries of the source, which are not always exact repeats. Identical values can stand only once. Toxic doses and inconclusive results are not listed. Rule as the data show it: active = T/C of 150% or more; inactive = T/C below 125%.
System: L1210 leukemia ip in BDF1 mice, survival T/C
Test: NCI In Vivo Anticancer Drug Screen. Data for tumor model L1210 Leukemia (intraperitoneal) in B6D2F1 (BDF1) mice
Conditions: endpoint: mean survival time, higher = longer survival
How it was run: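 Ratio derived from survival: compound-dosed mice over vehicle-dosed mice, all bearing a transplantable tumor.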

[1] = dose: 100.0 mg/kg/injection, schedule: Q04DX002 (ip), vehicle: Klucel (hydroxypropylcellulose) (HPC)
[2] = dose: 200.0 mg/kg/injection, schedule: Q04DX002 (ip), vehicle: Klucel (hydroxypropylcellulose) (HPC)
[3] = dose: 100.0 mg/kg/injection, schedule: Q01DX009 (ip), vehicle: Klucel (hydroxypropylcellulose) (HPC)
[4] = dose: 200.0 mg/kg/injection, schedule: Q01DX009 (ip), vehicle: Klucel (hydroxypropylcellulose) (HPC)
[5] = dose: 400.0 mg/kg/injection, schedule: Q01DX009 (ip), vehicle: Klucel (hydroxypropylcellulose) (HPC)
[6] = dose: 100.0 mg/kg/injection, schedule: Q04DX003 (ip), vehicle: saline with Tween-80
[7] = dose: 200.0 mg/kg/injection, schedule: Q04DX003 (ip), vehicle: saline with Tween-80
[8] = dose: 400.0 mg/kg/injection, schedule: Q04DX003 (ip), vehicle: saline with Tween-80
[9] = dose: 100.0 mg/kg/injection, schedule: Q04DX003 (ip), vehicle: saline
[10] = dose: 200.0 mg/kg/injection, schedule: Q04DX003 (ip), vehicle: saline
[11] = dose: 100.0 mg/kg/injection, schedule: Q01DX009 (ip), vehicle: saline with Tween-80
[12] = dose: 200.0 mg/kg/injection, schedule: Q01DX009 (ip), vehicle: saline with Tween-80
[13] = dose: 400.0 mg/kg/injection, schedule: Q01DX009 (ip), vehicle: saline with Tween-80
[14] = dose: 100.0 mg/kg/injection, schedule: Q04DX003 (ip), vehicle: Klucel (hydroxypropylcellulose) (HPC)
[15] = dose: 200.0 mg/kg/injection, schedule: Q04DX003 (ip), vehicle: Klucel (hydroxypropylcellulose) (HPC)

Measured: T/C

Cn1c(Cl)nc2c(Cl)nc(Cl)nc21
inactive: dose: 6.25 mg/kg/injection, schedule: Q01DX009 (ip), vehicle: Klucel (hydroxypropylcellulose) (HPC) 102 % of control | dose: 12.5 mg/kg/injection, schedule: Q01DX009 (ip), vehicle: Klucel (hydroxypropylcellulose) (HPC) 102 % of control | dose: 100.0 mg/kg/injection, schedule: Q01DX001 (ip), vehicle: saline 92 % of control | dose: 200.0 mg/kg/injection, schedule: Q01DX001 (ip), vehicle: saline 94 % of control | dose: 400.0 mg/kg/injection, schedule: Q01DX001 (ip), vehicle: saline 94 % of control

COC(=O)C1CCC2(C)C=CC(=O)C(C)C2C1 (centres undefined)
inactive: dose: 75.0 mg/kg/injection, schedule: Q04DX003 (ip), vehicle: saline 100 % of control | dose: 150.0 mg/kg/injection, schedule: Q04DX003 (ip), vehicle: saline 100 % of control | dose: 300.0 mg/kg/injection, schedule: Q04DX003 (ip), vehicle: saline 96 % of control

C=CCc1ccc(OC(=O)Nc2ccc(C)cc2Cl)c(OC)c1
inactive: dose: 100.0 mg/kg/injection, schedule: Q04DX002 (ip), vehicle: carboxymethylcellulose (CMC) 93 % of control and 101 % of control | dose: 200.0 mg/kg/injection, schedule: Q04DX002 (ip), vehicle: carboxymethylcellulose (CMC) 96 % of control and 100 % of control | dose: 400.0 mg/kg/injection, schedule: Q04DX002 (ip), vehicle: carboxymethylcellulose (CMC) 97 % of control and 107 % of control

[CH3][Pb]([CH3])([CH3])[O]C(=O)c1ccc([N+](=O)[O-])cc1
inactive: dose: 12.5 mg/kg/injection, schedule: Q04DX002 (ip), vehicle: Klucel (hydroxypropylcellulose) (HPC) 97 % of control

NC(N1CC1)(C(F)(F)F)C(F)(F)F
inactive: dose: 20.0 mg/kg/injection, schedule: Q01DX001 (ip), vehicle: saline 100 % of control | dose: 20.0 mg/kg/injection, schedule: Q04DX003 (ip), vehicle: saline 102 % of control | dose: 40.0 mg/kg/injection, schedule: Q01DX001 (ip), vehicle: saline 111 % of control | dose: 40.0 mg/kg/injection, schedule: Q04DX003 (ip), vehicle: saline 102 % of control | dose: 80.0 mg/kg/injection, schedule: Q01DX001 (ip), vehicle: saline 102 % of control | dose: 80.0 mg/kg/injection, schedule: Q04DX003 (ip), vehicle: saline 94 % of control

Nc1ccc2cc(S(=O)(=O)O)cc(S(=O)(=O)O)c2c1
inactive: dose: 100.0 mg/kg/injection, schedule: Q04DX002 (ip), vehicle: saline 95 % of control | dose: 200.0 mg/kg/injection, schedule: Q04DX002 (ip), vehicle: saline 102 % of control

CC1(CC(=O)NN)OCCO1
inactive: dose: 100.0 mg/kg/injection, schedule: Q01DX001 (ip), vehicle: Klucel (hydroxypropylcellulose) (HPC) 104 % of control | dose: 200.0 mg/kg/injection, schedule: Q01DX001 (ip), vehicle: Klucel (hydroxypropylcellulose) (HPC) 102 % of control | dose: 400.0 mg/kg/injection, schedule: Q01DX001 (ip), vehicle: Klucel (hydroxypropylcellulose) (HPC) 107 % of control

Nc1nc(N)c2nc(CNCCc3ccccc3)cnc2n1
inactive: dose: 20.0 mg/kg/injection, schedule: Q01DX009 (ip), vehicle: Klucel (hydroxypropylcellulose) (HPC) 100 % of control | dose: 40.0 mg/kg/injection, schedule: Q01DX009 (ip), vehicle: Klucel (hydroxypropylcellulose) (HPC) 102 % of control

COC(=O)C(Cc1ccccc1)NC(=O)C(COC1OC(COC(C)=O)C(OC(C)=O)C(OC(C)=O)C1NC(C)=O)NC(=O)OCc1ccccc1 (centres undefined)
inactive: dose: 50.0 mg/kg/injection, schedule: Q04DX002 (ip), vehicle: Klucel (hydroxypropylcellulose) (HPC) 101 % of control | [1] 104 % of control | [2] 101 % of control

O=C(N/N=C\c1ccc(Cl)cc1)C(O)C(O)C(O)C(O)CO (centres undefined)
inactive: [3] 100 % of control | [4] 91 % of control | [5] 89 % of control

CC(=O)Nc1cc(Cl)ccc1C(=O)O
inactive: dose: 100.0 mg/kg/injection, schedule: Q01DX001 (ip), vehicle: other 109 % of control | dose: 100.0 mg/kg/injection, schedule: Q04DX003 (ip), vehicle: other 96 % of control | dose: 200.0 mg/kg/injection, schedule: Q01DX001 (ip), vehicle: other 98 % of control | dose: 200.0 mg/kg/injection, schedule: Q04DX003 (ip), vehicle: other 90 % of control | dose: 400.0 mg/kg/injection, schedule: Q01DX001 (ip), vehicle: other 101 % of control | dose: 400.0 mg/kg/injection, schedule: Q04DX003 (ip), vehicle: other 96 % of control

O=C1N/C(=N/OCc2ccc([N+](=O)[O-])cc2)CC(NOCc2ccc([N+](=O)[O-])cc2)N1 (centres undefined)
inactive: [6] 91 % of control | [7] 101 % of control | [8] 89 % of control

O=S1(=O)CC(O)C(Cl)C1 (centres undefined)
inactive: dose: 50.0 mg/kg/injection, schedule: Q01DX009 (ip), vehicle: saline 101 % of control | dose: 100.0 mg/kg/injection, schedule: Q01DX009 (ip), vehicle: saline 94 % of control | [9] 98 % of control | dose: 200.0 mg/kg/injection, schedule: Q01DX009 (ip), vehicle: saline 94 % of control | [10] 94 % of control

CCCCCCCC(N)CC(=O)O (centres undefined)
inactive: [3] 105 % of control | [4] 97 % of control | [5] 107 % of control

O=[N+]([O-])c1ccccc1N=Nc1c(O)[nH]c2ccc(S(=O)(=O)O)cc12
inactive: dose: 100.0 mg/kg/injection, schedule: Q01DX001 (ip), vehicle: acetone 94 % of control | dose: 200.0 mg/kg/injection, schedule: Q01DX001 (ip), vehicle: acetone 92 % of control | dose: 400.0 mg/kg/injection, schedule: Q01DX001 (ip), vehicle: acetone 100 % of control

NC(=O)Cn1cnc2cncnc21
inactive: [6] 103 % of control | [7] 111 % of control | [8] 99 % of control

CC(C)CCCC(C)CCCC(C)CCCCC(C)CCCC(C)CCCC(C)C (centres undefined)
inactive: [1] 103 % of control | [2] 106 % of control | dose: 400.0 mg/kg/injection, schedule: Q04DX002 (ip), vehicle: Klucel (hydroxypropylcellulose) (HPC) 109 % of control

CNC(C(=O)O)c1ccccc1 (centres undefined)
inactive: dose: 100.0 mg/kg/injection, schedule: Q01DX001 (ip), vehicle: steriod suspending solution 89 % of control | dose: 200.0 mg/kg/injection, schedule: Q01DX001 (ip), vehicle: steriod suspending solution 97 % of control | dose: 400.0 mg/kg/injection, schedule: Q01DX001 (ip), vehicle: steriod suspending solution 87 % of control

O=C(/C=C/C=C/c1ccccc1)c1ccc(Cl)cc1
inactive: [11] 97 % of control | [6] 95 % of control | [12] 92 % of control | [13] 95 % of control | [8] 96 % of control

CCOP(=O)(Cc1ccc(CP(=O)(OCC)OCC)cc1)OCC
inactive: [9] 105 % of control | [10] 97 % of control | dose: 400.0 mg/kg/injection, schedule: Q04DX003 (ip), vehicle: saline 101 % of control

CCO/C=C/c1ccccc1
inactive: [11] 101 % of control | [6] 93 % of control | [12] 96 % of control | [7] 98 % of control | [13] 90 % of control

CC(=O)Nc1ccc(S(=O)(=O)N2CC2)cc1
inactive: dose: 50.0 mg/kg/injection, schedule: Q01DX005 (ip), vehicle: saline 102 % of control | dose: 50.0 mg/kg/injection, schedule: Q04DX003 (ip), vehicle: Klucel (hydroxypropylcellulose) (HPC) 91 % of control | dose: 100.0 mg/kg/injection, schedule: Q01DX005 (ip), vehicle: saline 96 % of control | [14] 102 % of control | dose: 200.0 mg/kg/injection, schedule: Q01DX005 (ip), vehicle: saline 102 % of control | [15] 95 % of control

CSc1ccc(/C=N/NC(N)=S)cc1
inactive: [3] 103 % of control | [14] 106 % of control | [4] 92 % of control | [15] 106 % of control | dose: 400.0 mg/kg/injection, schedule: Q04DX003 (ip), vehicle: Klucel (hydroxypropylcellulose) (HPC) 108 % of control
